# Active and inactive are the calls of the source. The rule behind the calls is not given here.
# Tests used:
# [1] = Stability in phosphate buffer at pH 7.4 by UV-visible absorption analysis; format: physicochemical
# [2] = system: RAW264.7; assay: Antiinflammatory activity in LPS-induced mouse RAW264.7 macrophages assessed as suppression of TNF-alpha mRNA level pretreated at 10 uM for 2 hrs followed by stimulation with LPS for 6 hrs by RT-qPCR analysis; format: functional, cell-based
# [3] = system: Peritoneal macrophage cell; assay: Antiinflammatory activity in LPS-induced ICR mouse peritoneal macrophages assessed as suppression of IL-6 release pretreated for 2 hrs followed by stimulation with LPS for 22 hrs by ELISA; format: functional, cell-based
# [4] = system: Peritoneal macrophage cell; assay: Antiinflammatory activity in LPS-induced ICR mouse peritoneal macrophages assessed as suppression of TNF-alpha release pretreated for 2 hrs followed by stimulation with LPS for 22 hrs by ELISA; format: functional, cell-based
# [5] = Cytotoxicity against human HL-7702 cells at 10 uM after 24 hrs by MTT assay; format: cell-based; conditions: l02, 24 h
# [6] = system: RAW264.7; assay: Antiinflammatory activity in LPS-induced mouse RAW264.7 macrophages assessed as suppression of IL-1beta mRNA level pretreated at 10 uM for 2 hrs followed by stimulation with LPS for 6 hrs by RT-qPCR analysis; format: functional, cell-based
# [7] = system: RAW264.7; assay: Antiinflammatory activity in LPS-induced mouse RAW264.7 macrophages assessed as suppression of IL-6 mRNA level pretreated at 10 uM for 2 hrs followed by stimulation with LPS for 6 hrs by RT-qPCR analysis; format: functional, cell-based
# [8] = system: RAW264.7; assay: Antiinflammatory activity in LPS-induced mouse RAW264.7 macrophages assessed as suppression of TNF-alpha release pretreated for 2 hrs followed by stimulation with LPS for 22 hrs by ELISA; format: functional, cell-based
# [9] = system: RAW264.7; assay: Antiinflammatory activity in LPS-induced mouse RAW264.7 macrophages assessed as suppression of IL-6 release pretreated for 2 hrs followed by stimulation with LPS for 22 hrs by ELISA; format: functional, cell-based
# [10] = system: RAW264.7; assay: Antiinflammatory activity in LPS-induced mouse RAW264.7 macrophages assessed as suppression of TNF-alpha release pretreated at 10 uM for 2 hrs followed by stimulation with LPS for 22 hrs by ELISA; format: functional, cell-based
# [11] = system: RAW264.7; assay: Antiinflammatory activity in LPS-induced mouse RAW264.7 macrophages assessed as suppression of COX-2 mRNA level pretreated at 10 uM for 2 hrs followed by stimulation with LPS for 6 hrs by RT-qPCR analysis; format: functional, cell-based
# [12] = molecular target: Transcription factor p65 (Mus musculus) (UniProt Q04207); assay: Inhibition of NFkappaB in LPS-induced mouse RAW264.7 cells assessed as increase in P65 in cytosol pretreated for 2 hrs followed by stimulation with LPS for 1 hr by Western blot analysis; format: cell-based
# [13] = system: RAW264.7; assay: Inhibition of NFkappaB in LPS-induced mouse RAW264.7 cells assessed as suppression of binding of NF-kappabeta with DNA in nucleus pretreated for 2 hrs followed by stimulation with LPS for 1 hr by EMSA; format: cell-based
# [14] = system: RAW264.7; assay: Antiinflammatory activity in LPS-induced mouse RAW264.7 macrophages assessed as suppression of COX-2 mRNA level pretreated for 2 hrs followed by stimulation with LPS for 6 hrs by RT-qPCR analysis; format: functional, cell-based
# [15] = system: RAW264.7; assay: Inhibition of LPS-induced IkappaB-alpha degradation in LPS-induced mouse RAW264.7 cells pretreated for 2 hrs followed by stimulation with LPS for 1 hr by Western blot analysis; format: cell-based
# [16] = system: Mus musculus; assay: Antiinflammatory activity in LPS-induced C57BL/6 mouse assessed as survival rate pretreated at 10 mg/kg, iv for 15 mins followed by LPS stimulation measured for 7 days; format: functional; conditions: C57BL/6, iv
# [17] = system: RAW264.7; assay: Antiinflammatory activity in LPS-induced mouse RAW264.7 macrophages assessed as suppression of IL-1beta mRNA level pretreated for 2 hrs followed by stimulation with LPS for 6 hrs by RT-qPCR analysis; format: functional, cell-based
# [18] = molecular target: Transcription factor p65 (Mus musculus) (UniProt Q04207); assay: Inhibition of NFkappaB in LPS-induced mouse RAW264.7 cells assessed as decrease in P65 in nucleus pretreated for 2 hrs followed by stimulation with LPS for 1 hr by Western blot analysis; format: cell-based
# [19] = system: RAW264.7; assay: Antiinflammatory activity in LPS-induced mouse RAW264.7 macrophages assessed as suppression of TNF-alpha mRNA level pretreated for 2 hrs followed by stimulation with LPS for 6 hrs by RT-qPCR analysis; format: functional, cell-based
# [20] = system: RAW264.7; assay: Antiinflammatory activity in LPS-induced mouse RAW264.7 macrophages assessed as suppression of IL-6 mRNA level pretreated for 2 hrs followed by stimulation with LPS for 6 hrs by RT-qPCR analysis; format: functional, cell-based
# Chain of Transcription factor p65 (Mus musculus) (Q04207 whole entry): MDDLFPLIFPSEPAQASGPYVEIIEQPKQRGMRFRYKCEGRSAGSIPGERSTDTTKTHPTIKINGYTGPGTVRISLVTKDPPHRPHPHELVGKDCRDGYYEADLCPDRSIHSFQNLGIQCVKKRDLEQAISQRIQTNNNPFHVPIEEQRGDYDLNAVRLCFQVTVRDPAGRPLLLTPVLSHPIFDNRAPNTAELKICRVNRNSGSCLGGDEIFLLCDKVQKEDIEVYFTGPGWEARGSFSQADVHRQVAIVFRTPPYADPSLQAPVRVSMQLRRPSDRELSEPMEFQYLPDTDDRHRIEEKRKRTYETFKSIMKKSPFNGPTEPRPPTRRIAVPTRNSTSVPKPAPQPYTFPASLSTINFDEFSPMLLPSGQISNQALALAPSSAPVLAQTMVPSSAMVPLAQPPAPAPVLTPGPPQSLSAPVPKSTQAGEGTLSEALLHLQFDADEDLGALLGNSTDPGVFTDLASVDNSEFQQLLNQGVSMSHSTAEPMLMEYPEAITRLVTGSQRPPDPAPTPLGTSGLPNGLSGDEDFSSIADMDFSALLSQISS
compound,measurement,setting,value
COc1cc(/C=C/C(=O)/C=C/c2ccc(OC)c(OC)c2OC)ccc1O,Stability,[1],Stable
same,inhibition,[2],Active
same,inhibition,[3],Dose-dependent effect
same,inhibition,[4],Dose-dependent effect
same,Activity,[5],Non-toxic
same,inhibition,[6],Active
same,inhibition,[7],Active
same,inhibition,[8],Dose-dependent effect
same,inhibition,[9],Dose-dependent effect
same,inhibition,[10],Active
same,inhibition,[11],Active
COc1cc(/C=C/C(=O)/C=C/c2ccc(C(F)(F)F)cc2)ccc1O,Activity,[5],Non-toxic
same,inhibition,[10],Active
COc1cc(/C=C/C(=O)/C=C/c2ccc(Br)cc2)ccc1O,Activity,[5],Non-toxic
COc1cc(/C=C/C(=O)/C=C/c2cc([N+](=O)[O-])ccc2F)ccc1O,Activity,[5],Non-toxic
COc1cc(/C=C/C(=O)/C=C/c2cccc(O)c2)ccc1O,Activity,[5],Non-toxic
same,inhibition,[10],Active
COc1cc(/C=C/C(=O)/C=C/c2ccc(OC)c(Br)c2)ccc1O,inhibition,[2],Active
same,inhibition,[3],Dose-dependent effect
same,inhibition,[4],Dose-dependent effect
same,Activity,[5],Non-toxic
same,inhibition,[6],Active
same,inhibition,[7],Active
same,inhibition,[8],Dose-dependent effect
same,inhibition,[9],Dose-dependent effect
same,inhibition,[10],Active
same,inhibition,[11],Active
COc1ccc(F)c(/C=C/C(=O)/C=C/c2ccc(O)c(OC)c2)c1,Activity,[5],Non-toxic
COc1cc(/C=C/C(=O)/C=C/c2cc(F)ccc2F)ccc1O,Activity,[5],Non-toxic
same,inhibition,[10],Active
COc1cc(/C=C/C(=O)/C=C/c2c(C)cc(C)cc2C)ccc1O,inhibition,[2],Active
same,inhibition,[3],Dose-dependent effect
same,inhibition,[4],Dose-dependent effect
same,Activity,[5],Non-toxic
same,inhibition,[6],Active
same,inhibition,[7],Active
same,inhibition,[8],Dose-dependent effect
same,inhibition,[9],Dose-dependent effect
same,inhibition,[10],Active
same,inhibition,[11],Active
COc1cc(/C=C/C(=O)/C=C/c2ccccc2C(F)(F)F)ccc1O,Activity,[5],Non-toxic
same,inhibition,[10],Active
COc1cc(/C=C/C(=O)/C=C/c2ccc(C(F)(F)F)cc2C(F)(F)F)ccc1O,Activity,[5],Non-toxic
same,inhibition,[10],Active
COc1cc(/C=C/C(=O)/C=C/c2ccc(O)cc2Br)ccc1O,Activity,[5],Non-toxic
same,inhibition,[10],Active
COc1cc(/C=C/C(=O)/C=C/c2ccc(OC(C)=O)cc2)ccc1O,Activity,[5],Non-toxic
COc1cc(/C=C/C(=O)/C=C/c2c(F)cccc2Br)ccc1O,Activity,[5],Non-toxic
COc1cc(/C=C/C(=O)/C=C/c2cccc(C(F)(F)F)c2F)ccc1O,Activity,[5],Non-toxic
same,inhibition,[10],Active
COc1cc(/C=C/C(=O)/C=C/c2cc(Br)ccc2Br)ccc1O,Activity,[5],Non-toxic
same,inhibition,[10],Active
COc1cc(/C=C/C(=O)/C=C/c2cc(F)ccc2Br)ccc1O,Activity,[5],Non-toxic
same,inhibition,[10],Active
COc1cc(/C=C/C(=O)/C=C/c2ccc3ccccc3c2)ccc1O,Activity,[5],Non-toxic
COc1cc(/C=C/C(=O)/C=C/c2ccc(Br)c(F)c2)ccc1O,Activity,[5],Non-toxic
COc1ccc(/C=C/C(=O)/C=C/c2ccc(O)c(OC)c2)c(F)c1,inhibition,[2],Active
same,inhibition,[3],Dose-dependent effect
same,inhibition,[4],Dose-dependent effect
same,Activity,[5],Non-toxic
same,inhibition,[6],Active
same,inhibition,[7],Active
same,inhibition,[8],Dose-dependent effect
same,inhibition,[9],Dose-dependent effect
same,inhibition,[10],Active
same,inhibition,[11],Active
COc1cc(/C=C/C(=O)/C=C/c2ccccc2Br)ccc1O,Activity,[5],Non-toxic
COc1cc(/C=C/C(=O)/C=C/c2ccccc2Cl)ccc1O,Activity,[5],Non-toxic
COc1cc(/C=C/C(=O)CC(=O)/C=C/c2ccc(O)c(OC)c2)ccc1O [CURCUMIN],Activity,[5],Non-toxic
same,inhibition,[10],Active
COc1ccc(Br)c(/C=C/C(=O)/C=C/c2ccc(O)c(OC)c2)c1,Activity,[5],Non-toxic
same,inhibition,[10],Active
COc1cc(/C=C/C(=O)/C=C/c2cc3c(cc2Br)OCO3)ccc1O,inhibition,[2],Active
same,inhibition,[3],Dose-dependent effect
same,inhibition,[4],Dose-dependent effect
same,Activity,[5],Non-toxic
same,inhibition,[6],Active
same,inhibition,[7],Active
same,inhibition,[8],Dose-dependent effect
same,inhibition,[9],Dose-dependent effect
same,inhibition,[10],Active
same,inhibition,[11],Active
COc1cc(/C=C/C(=O)/C=C/c2ccc3c(c2)CCN3)ccc1O,Activity,[5],Non-toxic
COc1cc(/C=C/C(=O)/C=C/c2cccc(Br)c2)ccc1O,Activity,[5],Non-toxic
same,inhibition,[10],Active
COc1cc(/C=C/C(=O)/C=C/c2ccc(C(C)C)cc2)ccc1O,Activity,[5],Non-toxic
same,inhibition,[10],Active
COc1cc(/C=C/C(=O)/C=C/c2ccccc2[N+](=O)[O-])ccc1O,Activity,[12],Active
same,Stability,[1],Stable
same,inhibition,[2],Active
same,inhibition,[13],Active
same,inhibition,[3],Dose-dependent effect
same,inhibition,[4],Dose-dependent effect
same,Activity,[5],Non-toxic
same,inhibition,[6],Active
same,inhibition,[14],Dose-dependent effect
same,inhibition,[7],Active
same,Activity,[15],Dose-dependent effect
same,survival at 10 mg/kg,[16],55%
same,inhibition,[17],Dose-dependent effect
same,inhibition,[8],Dose-dependent effect
same,inhibition,[9],Dose-dependent effect
same,Activity,[18],Active
same,inhibition,[10],Active
same,inhibition,[19],Dose-dependent effect
same,inhibition,[20],Dose-dependent effect
same,inhibition,[11],Active
C=CCOc1ccc(/C=C/C(=O)/C=C/c2ccc(O)c(OC)c2)cc1,Activity,[5],Non-toxic
COc1cc(/C=C/C(=O)/C=C/c2ccc([N+](=O)[O-])cc2[N+](=O)[O-])ccc1O,Activity,[5],Non-toxic
COc1cc(/C=C/C(=O)/C=C/c2cccc(Cl)c2Cl)ccc1O,Activity,[5],Non-toxic
same,inhibition,[10],Active

# Source: ChEMBL document CHEMBL3739320, “Synthesis and biological evaluation of novel semi-conservative monocarbonyl analogs of curcumin as anti-inflammatory agents” (Medchemcomm, 2015)
